Active and inactive are the calls of the source. The rule behind the calls is not given here.
Assays:
Assay type in all cases: cell-based
[1] = target: T1, 17-beta-hydroxysteroid dehydrogenase type 1 (Homo sapiens) (UniProt P14061); assay: Inhibition of 17beta-HSD1 expressed in intact human T47D cells at 1 uM after 30 mins
T1 sequence (whole entry): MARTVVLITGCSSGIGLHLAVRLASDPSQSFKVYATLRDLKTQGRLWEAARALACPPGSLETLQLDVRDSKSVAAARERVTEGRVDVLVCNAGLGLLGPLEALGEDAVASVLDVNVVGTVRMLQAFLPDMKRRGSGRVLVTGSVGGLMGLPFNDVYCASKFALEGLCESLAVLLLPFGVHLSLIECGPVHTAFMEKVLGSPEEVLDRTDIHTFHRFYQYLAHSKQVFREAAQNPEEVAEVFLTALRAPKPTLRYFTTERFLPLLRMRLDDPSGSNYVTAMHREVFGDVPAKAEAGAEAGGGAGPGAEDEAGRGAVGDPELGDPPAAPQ

[2] = target: T1, 17-beta-hydroxysteroid dehydrogenase type 1 (Homo sapiens); assay: Inhibition of 17beta-HSD1 expressed in intact human T47D cells at 10 uM after 30 mins
[3] = target: T2, 17-beta-hydroxysteroid dehydrogenase type 1 (Homo sapiens, UniProt P14061); assay: Inhibition of 17beta-HSD1 expressed in intact human T47D cells after 30 mins
T2 sequence (P14061 whole entry): T1 sequence (whole entry)

[4] = target: T3, 17-beta-hydroxysteroid dehydrogenase type 2 (Homo sapiens) (UniProt P37059); assay: Inhibition of 17beta-HSD2 expressed in intact human MDA-MB-231 cells at 10 uM after 3 hrs
T3 sequence (whole entry): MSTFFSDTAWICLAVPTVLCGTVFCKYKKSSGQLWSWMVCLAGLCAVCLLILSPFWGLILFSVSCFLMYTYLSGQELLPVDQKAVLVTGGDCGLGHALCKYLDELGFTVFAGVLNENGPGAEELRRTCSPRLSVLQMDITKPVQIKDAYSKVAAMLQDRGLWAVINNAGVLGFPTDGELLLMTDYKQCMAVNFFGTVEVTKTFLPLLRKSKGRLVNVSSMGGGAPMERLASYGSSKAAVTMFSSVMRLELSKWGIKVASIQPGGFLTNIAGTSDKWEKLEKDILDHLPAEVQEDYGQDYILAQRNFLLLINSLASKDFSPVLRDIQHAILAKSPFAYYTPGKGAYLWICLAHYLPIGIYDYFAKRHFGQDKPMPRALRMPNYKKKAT

CCc1cc(-c2ccc(C(=O)CC(C)(C)C(=O)NCCc3cccnc3)cc2)ccc1O
inhibition [1]: 15%

COc1ccc(-c2ccc(C(C)=O)cc2)c(C)c1
Activity [2]: inactive

CCc1cc(-c2ccc3c(c2)CC(CC(=O)NCc2ccccn2)C3=O)ccc1O (stereo not drawn)
Activity [1]: inactive

COc1ccc(-c2ccc3c(c2)CCC3=O)cc1
Activity [2]: inactive

CCc1cc(-c2ccc(C(=O)CC(C)(C)C(=O)NCc3cccnc3)cc2)ccc1O
IC50 [3]: 1.8 µM
inhibition [1]: 38%

CCc1cc(-c2ccc(C(=O)CCC(=O)NCc3cccnc3)c(C)c2)ccc1O
inhibition [1]: 21%

O=C1CCc2cc(-c3ccccc3)ccc21
Activity [2]: inactive

CCc1cc(-c2ccc(O)cc2)ccc1C(C)=O
IC50 [3]: 9.9 µM
inhibition [2]: 71%

CCc1cc2c(cc1O)CC[C@@H]1[C@@H]2CC[C@]2(C)C(=O)[C@@H](CC(=O)NCc3cccnc3)C[C@@H]12
IC50 [3]: 0.027 µM

CCc1cc(-c2ccc3c(c2)CCCC3=O)ccc1O
inhibition [2]: 51%

CC(=O)c1ccc(-c2ccc(O)cc2)cc1
IC50 [3]: 3.7 µM
inhibition [2]: 97%

COc1ccc(-c2ccc(C(C)=O)cc2C)cc1
Activity [2]: inactive

CCc1cc(-c2ccc3c(c2)CC(CC(=O)NCc2cccnc2)C3=O)ccc1O (stereo not drawn)
IC50 [3]: 4.7 µM
inhibition [1]: 39%

CC(=O)c1ccc(-c2ccc(O)cc2C)cc1
IC50 [3]: 3.7 µM

CC(=O)c1ccc(-c2ccc(O)cc2)c(C)c1
Activity [2]: inactive

CC(=O)c1ccc2c(c1)Cc1cc(O)ccc1-2
IC50 [3]: 4.8 µM
inhibition [2]: 86%

COc1ccc(-c2ccc3c(c2)CCC3=O)cc1F
inhibition [2]: 56%

CCc1cc(-c2ccc(C(=O)CCC(=O)NCc3cccnc3)cc2)ccc1O
inhibition [4]: 12%
IC50 [3]: 3.7 µM
inhibition [1]: 24%

O=C1CCCc2cc(-c3ccc(O)cc3)ccc21
IC50 [3]: 15.6 µM
inhibition [2]: 89%

CCc1cc(-c2ccc(C(=O)CCC(=O)NCc3ccccn3)cc2)ccc1O
Activity [1]: inactive

COc1ccc(-c2ccc3c(c2)CCCC3=O)cc1
Activity [2]: inactive

CCc1cc(-c2ccc(C(=O)CCC(=O)NCCO)cc2)ccc1O
inhibition [1]: 23%

CC(=O)c1ccc(-c2ccc3c(c2)OCO3)cc1
Activity [2]: inactive

CCc1cc(-c2ccc3c(c2)CCCC3=O)ccc1OC
IC50 [3]: 8.3 µM
inhibition [2]: 71%

O=C1CCc2cc(-c3ccc(O)cc3)ccc21
inhibition [4]: 17%
IC50 [3]: 1.7 µM
inhibition [2]: 81%

CCc1cc(-c2ccc(C(C)=O)cc2)ccc1O
inhibition [4]: 51%
IC50 [3]: 5.4 µM
inhibition [2]: 73%

O=C1CCc2cc(-c3ccc(O)c(F)c3)ccc21
inhibition [4]: 24%
IC50 [3]: 2.9 µM
inhibition [2]: 75%

CCc1cc(-c2ccc(C(=O)CCC(=O)NCCc3cccnc3)c(C)c2)ccc1O
inhibition [1]: 15%

CCc1cc(-c2ccc3c(c2)CCC3=O)ccc1O
inhibition [4]: 48%
IC50 [3]: 2 µM
inhibition [2]: 86%

CCc1cc(-c2ccc3c(c2)CC(CC(=O)NCc2cnc(C)cn2)C3=O)ccc1O (stereo not drawn)
Activity [1]: inactive

CCc1cc(-c2ccc(C(=O)CC(C)(C)C(=O)NCc3cccnc3)cc2)ccc1OC
inhibition [1]: 17%

CCc1cc(-c2ccc3c(c2)CCC3=O)ccc1OC
Activity [2]: inactive

CCc1cc(-c2ccc(C(=O)CCC(=O)NCCc3cccnc3)cc2)ccc1O
inhibition [1]: 17%

CCc1cc(-c2ccc(C(C)=O)cc2)ccc1OC
Activity [2]: inactive

COc1ccc2c(c1)Cc1cc(C(C)=O)ccc1-2
Activity [2]: inactive

COc1ccc(-c2ccc(C(C)=O)cc2)cc1
Activity [2]: inactive

Reference: ChEMBL document CHEMBL1144736, “Novel inhibitors of 17beta-hydroxysteroid dehydrogenase type 1: templates for design” (Bioorg Med Chem, 2008)
